# Source: US20080090863A1, “Pyridine Derivatives and Their Use as Medicaments for Treating Diseases Related to Mch Receptor” (TAISHO PHARMACEUTICAL CO., LTD., priority 2004, published 2008)
# pIC50: −log10 of the molar value. Counter-ions that a name gives are not always drawn.
# Target: MCH receptor (Homo sapiens, UniProt Q99705)
# Test: High Throughput Functional Screening: FLIPR/FDSS6000 intracellular Ca2+ assay, antagonist activity against MCH
# Type: cell-based
# Parameters: class (percent of control at 10^−7 M or IC50): scale not given here
# Conditions: FLIPR/FDSS, [Ca2+]i evoked by 50 nM MCH, non-endogenous constitutively active MCH receptor; read-out: IC50
# Excerpt: Subsequently, a functional based assay was used to confirm the lead hits, referred to as FLIPR™ (the Fluorometric Imaging Plate Reader) and FDSS6000™ (Functional Drug Screening System). This assay utilized a non-endogenous, constitutively active version of the MCH receptor.
# The FLIPR and FDSS assays are able to detect intracellular Ca^2+ concentration in cells, which can be utilized to assess receptor activation and determine whether a candidate compound is an, for example, antagonist, inverse agonist or agonist to a Gq-coupled receptor. The concentration of free Ca^2+ in the cytosol of any cell is extremely low, whereas its concentration in the extracellular fluid and endoplasmic reticulum (ER) is very high. Thus, there is a large gradient tending to drive Ca^2+ into the cytosol across both the plasma membrane and ER. The FLIPR™ and FDSS6000™ systems (Molecular Devices Corporation, HAMAMATSU Photonics K.K.) are designed to perform functional cell-based assays, such as the measurement of intracellular calcium for high-throughput screening. The measurement of fluorescent is associated with calcium release upon activation of the Gq-coupled receptors.
# Fluorometric Imaging Plate Reader system was used to allow for rapid, kinetic measurements of intracellular fluorescence in 96 well microplates (or 384 well microplates). Simultaneous measurements of fluorescence in all wells can be made by FLIPR or FDSS6000™ every second with high sensitivity and precision. These systems are ideal for measuring cell-based functional assays such as monitoring the intracellular calcium fluxes that occur within seconds after activation of the Gq coupled receptor.
# Briefly, the cells are seeded into 96 well at 5.5×10^4 cells/well with complete culture media (Dulbecco's Modified Eagle Medium with 10% fetal bovine serum, 2 mM L-glutamine, 1 mM sodium pyruvate and 0.5 mg/mL G418, pH 7.4) for the assay next day. On the day of assay, the media is removed and the cells are incubated with 100 μl of loading buffer (4 μM Fluo4-AM in complete culture media containing 2.5 mM Probenicid, 0.5 mg/ml and 0.2% bovine serum albumin) in 5% CO2 incubator at 37° C. for 1 hr. The loading buffer is removed, and the cells are washed with wash buffer (Hank's Balanced Salt Solution containing 2.5 mM Probenicid, 20 mM HEPES, 0.5 mg/mL and 0.2% bovine serum albumin, pH 7.4). One hundred fifty μl of wash buffer containing various concentrations of test compound is added to the cells, and the cells are incubated in 5% CO2 incubator at 37° C. for 30 min. Fifty μl of wash buffer containing various concentration of MCH are added to each well, and transient changes in [Ca^2+]i evoked by MCH are monitored using the FLIPR™ or FDSS in 96 well plates at Ex. 488 nm and Em. 530 nm for 290 second. When antagonist activity of compound is tested, 50 nM of MCH is used.
# Use of FLIPR™ and FDSS6000™ can be accomplished by following manufacturer's instruction (Molecular Device Corporation and HAMAMATSU Photonics K.K.).
row,pIC50,SMILES
1,9.00,"Cc1cnc(N[C@H]2CC[C@@H](NC(=O)c3ccc(F)c(Cl)c3)CC2)cc1N(C)C [Example 4, 3-Chloro-N-(cis-4-{[4-(dimethylamino)-5-methylpyridin-2-yl]amino}cyclohexyl)-4-fluorobenzamide hydrochloride]"
2,8.72,"Cc1cnc(N[C@H]2CC[C@@H](NC(=O)c3cc(F)c(F)c(F)c3)CC2)cc1N(C)C [Example 5, N-(cis-4-{[4-(Dimethylamino)-5-methylpyridin-2-yl]amino}cyclohexyl)-3,4,5-trifluorobenzamide hydrochloride]"

# Same assay, conditions: FLIPR/FDSS, [Ca2+]i evoked by 50 nM MCH; class by percent of control at 10^−7 M or IC50
row,class (percent of control at 10^−7 M or IC50),SMILES
1,2,"Cc1ccc(N[C@H]2CC[C@@H](NC(=O)c3ccc(F)c(Cl)c3)CC2)nc1.Cl [Example 2, 3-Chloro-4-fluoro-N-{cis-4-[(5-methylpyridin-2-yl)amino]cyclohexyl}benzamide hydrochloride]"
2,2,"Cc1cccc(N[C@H]2CC[C@@H](NC(=O)c3ccc(F)c(Cl)c3)CC2)n1.Cl [Example 3, 3-Chloro-4-fluoro-N-{cis-4-[(6-methylpyridin-2-yl)amino]cyclohexyl}benzamide hydrochloride]"
3,2,"Cc1cnc(N[C@H]2CC[C@@H](NC(=O)c3ccc(F)c(Cl)c3)CC2)cc1N.Cl [Example 17, N-{cis-4-[(4-Amino-5-methylpyridin-2-yl)amino]cyclohexyl}-3-chloro-4-fluorobenzamide hydrochloride]"
4,2,"Cc1cnc(N[C@H]2CC[C@@H](NC(=O)c3cc(F)c(F)c(F)c3)CC2)cc1N.Cl [Example 18, N-{cis-4-[(4-Amino-5-methylpyridin-2-yl)amino]cyclohexyl}-3,4,5-trifluorobenzamide hydrochloride]"
5,2,"CCN(C)c1cc(N[C@H]2CC[C@@H](NC(=O)c3ccc(F)c(Cl)c3)CC2)ncc1C.Cl [Example 19, 3-Chloro-N-[cis-4-({4-[ethyl(methyl)amino]-5-methylpyridin-2-yl}amino)cyclohexyl]-4-fluorobenzamide hydrochloride]"
6,2,"Cc1cnc(N[C@H]2CC[C@@H](NC(=O)c3ccc(F)c(Cl)c3)CC2)cc1N1CCCC1.Cl [Example 20, 3-Chloro-4-fluoro-N-{cis-4-[(5-methyl-4-pyrrolidin-1-ylpyridin-2-yl)amino]cyclohexyl}-benzamide hydrochloride]"
7,2,"Cc1cnc(N[C@H]2CC[C@@H](NC(=O)Nc3ccc(F)c(Cl)c3)CC2)cc1N(C)C.Cl [Example 25, N-(3-Chloro-4-fluorophenyl)-N′-(cis-4-{[4-(dimethylamino)-5-methylpyridin-2-yl]amino}cyclohexyl)urea hydrochloride]"
8,2,"Cc1cnc(N[C@H]2CC[C@@H](NC(=S)Nc3ccc(F)c(Cl)c3)CC2)cc1N(C)C.Cl [Example 26, N-(3-Chloro-4-fluorophenyl)-N′-(cis-4-{[4-(dimethylamino)-5-methylpyridin-2-yl]amino}-cyclohexyl)thiourea hydrochloride]"
9,2,"Cc1cnc(N[C@H]2CC[C@@H](CNC(=O)c3ccc(F)c(Cl)c3)CC2)cc1N(C)C.Cl [Example 32, 3-Chloro-N-[(cis-4-{[4-(dimethylamino)-5-methylpyridin-2-yl]amino}cyclohexyl)methyl]-4-fluorobenzamide hydrochloride]"

row,SMILES,class (percent of control at 10^−7 M or IC50)
1,"Cc1cnc(N[C@H]2CC[C@@H](NC(=O)Oc3ccc(Br)cc3)CC2)cc1N(C)C [Example 27, 4-Bromophenyl (cis-4-{[4-(dimethylamino)-5-methylpyridin-2-yl]amino}cyclohexyl)carbamate]",2

# Same assay, conditions: FLIPR/FDSS, [Ca2+]i evoked by 50 nM MCH; class by percent of control at 10^−7 M or IC50; read-out: class (percent of control at 10^−7 M or IC50)
row,pIC50,SMILES
1,> 7.30,"Cc1cnc(N[C@H]2CC[C@@H](NC(=O)c3ccc(F)c(Cl)c3)CC2)cc1N(C)C [Example 4, 3-Chloro-N-(cis-4-{[4-(dimethylamino)-5-methylpyridin-2-yl]amino}cyclohexyl)-4-fluorobenzamide hydrochloride]"
2,> 7.30,"Cc1cnc(N[C@H]2CC[C@@H](NC(=O)c3cc(F)c(F)c(F)c3)CC2)cc1N(C)C [Example 5, N-(cis-4-{[4-(Dimethylamino)-5-methylpyridin-2-yl]amino}cyclohexyl)-3,4,5-trifluorobenzamide hydrochloride]"
3,> 7.30,"Cc1cnc(N[C@H]2CC[C@@H](NC(=O)c3cc(F)cc(Cl)c3)CC2)cc1N(C)C [Example 6, 3-Chloro-N-(cis-4-{[4-(dimethylamino)-5-methylpyridin-2-yl]amino}cyclohexyl)-5-fluorobenzamide hydrochloride]"
4,> 7.30,"Cc1cnc(N[C@H]2CC[C@@H](NC(=O)c3cc(Cl)cc(Cl)c3)CC2)cc1N(C)C [Example 7, 3,5-Dichloro-N-(cis-4-{[4-(dimethylamino)-5-methylpyridin-2-yl]amino}cyclohexyl)benzamide hydrochloride]"
5,> 7.30,"Cc1cnc(N[C@H]2CC[C@@H](NC(=O)c3ccc(F)c(F)c3)CC2)cc1N(C)C [Example 8, N-(cis-4-{[4-(Dimethylamino)-5-methylpyridin-2-yl]amino}cyclohexyl)-3,4-difluorobenzamide hydrochloride]"
6,> 7.30,"Cc1cnc(N[C@H]2CC[C@@H](NC(=O)c3ccc(Cl)c(Cl)c3)CC2)cc1N(C)C [Example 9, 3,4-Dichloro-N-(cis-4-{[4-(Dimethylamino)-5-methylpyridin-2-yl]amino}cyclohexyl)benzamide hydrochloride]"
7,> 7.30,"Cc1cnc(N[C@H]2CC[C@@H](NC(=O)c3cccc(Cl)c3)CC2)cc1N(C)C [Example 10, 3-Chloro-N-(cis-4-{[4-(dimethylamino)-5-methylpyridin-2-yl]amino}cyclohexyl)benzamide hydrochloride]"
8,> 7.30,"Cc1cnc(N[C@H]2CC[C@@H](NC(=O)c3cncc(Br)c3)CC2)cc1N(C)C [Example 11, 5-Bromo-N-(cis-4-{[4-(dimethylamino)-5-methylpyridin-2-yl]amino}cyclohexyl)nicotinamide dihydrochloride]"
9,> 7.30,"Cc1cnc(N[C@H]2CC[C@@H](NC(=O)c3cccc(OC(F)(F)F)c3)CC2)cc1N(C)C [Example 12, N-(cis-4-{[4-(Dimethylamino)-5-methylpyridin-2-yl]amino}cyclohexyl)-3-(trifluoromethoxy)-benzamide hydrochloride]"
10,> 7.30,"Cc1cnc(N[C@H]2CC[C@@H](NC(=O)c3ccc(F)c(C(F)(F)F)c3)CC2)cc1N(C)C [Example 13, N-(cis-4-{[4-(Dimethylamino)-5-methylpyridin-2-yl]amino}cyclohexyl)-4-fluoro-3-(trifluoromethyl)benzamide hydrochloride]"
11,> 7.30,"Cc1cnc(N[C@H]2CC[C@@H](NC(=O)c3cccc(C(F)(F)F)c3)CC2)cc1N(C)C [Example 14, N-(cis-4-{[4-(Dimethylamino)-5-methylpyridin-2-yl]amino}cyclohexyl)-3-(trifluoromethyl)-benzamide hydrochloride]"
12,> 7.30,"CNc1cc(N[C@H]2CC[C@@H](NC(=O)c3ccc(F)c(Cl)c3)CC2)ncc1C [Example 15, 3-Chloro-4-fluoro-N-(cis-4-{[5-methyl-4-(methylamino)pyridin-2-yl]amino}cyclohexyl)-benzamide hydrochloride]"
13,> 7.30,"CNc1cc(N[C@H]2CC[C@@H](NC(=O)c3cc(F)c(F)c(F)c3)CC2)ncc1C [Example 16, 3,4,5-Trifluoro-N-(cis-4-{[5-methyl-4-(methylamino)pyridin-2-yl]amino}cyclohexyl)-benzamide hydrochloride]"
14,> 7.30,"Cc1cc(N(C)C)cc(N[C@H]2CC[C@@H](NC(=O)c3ccc(F)c(Cl)c3)CC2)n1 [Example 28, 3-Chloro-N-(cis-4-{[4-(dimethylamino)-6-methylpyridin-2-yl]amino}cyclohexyl)-4-fluorobenzamide hydrochloride]"
15,> 7.30,"Cc1cc(N(C)C)cc(N[C@H]2CC[C@@H](NC(=O)c3cc(F)c(F)c(F)c3)CC2)n1 [Example 29, N-(cis-4-{[4-(Dimethylamino)-6-methylpyridin-2-yl]amino}cyclohexyl)-3,4,5-trifluorobenzamide hydrochloride]"
16,> 7.30,"Cc1cc(N[C@H]2CC[C@@H](NC(=O)c3ccc(F)c(Cl)c3)CC2)nc2c1CCC2 [Example 33, 3-Chloro-4-fluoro-N-{cis-4-[(4-methyl-6,7-dihydro-5H-cyclopenta[b]pyridin-2-yl)amino]cyclohexyl}benzamide hydrochloride]"
